# From ChEMBL document CHEMBL4138222, “Cytotoxicity, molecular modeling, cell cycle arrest, and apoptotic induction induced by novel tetrahydro-[1,2,4]triazolo[3,4-a]isoquinoline chalcones” (Eur J Med Chem, 2018)
# Activity calls are given as the source filed them. The rule behind the calls is not given here.
# How the values were obtained:
# [1] = tested on: A549; assay: Cytotoxicity against human A549 cells assessed as inhibition of cell proliferation after 48 hrs by MTT assay; assay type: functional, cell-based; conditions: A549, 48 h
# [2] = tested on: MCF7; assay: Cytotoxicity against human MCF7 cells assessed as inhibition of cell proliferation after 48 hrs by MTT assay; assay type: functional, cell-based; conditions: MCF7, 48 h
# [3] = tested on: HCT-116; assay: Cytotoxicity against human HCT116 cells assessed as inhibition of cell proliferation after 48 hrs by MTT assay; assay type: functional, cell-based; conditions: HCT-116, 48 h
# [4] = tested on: HepG2; assay: Cytotoxicity against human HepG2 cells assessed as inhibition of cell proliferation after 48 hrs by MTT assay; assay type: functional, cell-based; conditions: HepG2, 48 h
# [5] = Cytotoxicity against human HFB4 cells assessed as inhibition of cell proliferation after 48 hrs by MTT assay; assay type: cell-based
# [6] = tested on: MCF7; assay: Upregulation of p53 mRNA expression in human MCF7 cells at IC50 after 48 hrs by RT-PCR method; assay type: functional, cell-based
# [7] = tested on: MCF7; assay: Upregulation of Bax mRNA expression in human MCF7 cells at IC50 after 48 hrs by RT-PCR method; assay type: functional, cell-based
# [8] = tested on: MCF7; assay: Upregulation of caspase-3 mRNA expression in human MCF7 cells at IC50 after 48 hrs by RT-PCR method; assay type: functional, cell-based
# [9] = tested on: MCF7; assay: Downregulation of BCL-2 mRNA expression in human MCF7 cells at IC50 after 48 hrs by RT-PCR method; assay type: functional, cell-based
# [10] = tested on: MCF7; assay: Downregulation of MMP1 mRNA expression in human MCF7 cells at IC50 after 48 hrs by RT-PCR method; assay type: functional, cell-based
# [11] = tested on: MCF7; assay: Downregulation of CDK4 mRNA expression in human MCF7 cells at IC50 after 48 hrs by RT-PCR method; assay type: functional, cell-based
# [12] = tested on: MCF7; assay: Cell cycle arrest in human MCF7 cells assessed as accumulation at G0/G1 phase at 27.15 ug/ml after 48 hrs by propidium iodide staining-based flow cytometric method (reference value: 71.13%); assay type: functional
# [13] = tested on: MCF7; assay: Cell cycle arrest in human MCF7 cells assessed as accumulation at S phase at 27.15 ug/ml after 48 hrs by propidium iodide staining-based flow cytometric method (reference value: 23.5%); assay type: functional
# [14] = tested on: MCF7; assay: Cell cycle arrest in human MCF7 cells assessed as accumulation at G2/M phase at 27.15 ug/ml after 48 hrs by propidium iodide staining-based flow cytometric method (reference value: 4.82%); assay type: functional
# [15] = tested on: MCF7; assay: Induction of apoptosis in human MCF7 cells at 27.15 ug/ml after 48 hrs by propidium iodide staining-based flow cytometric method (reference value: 0.55%); assay type: functional
# [16] = tested on: MCF7; assay: Induction of apoptosis in human MCF7 cells assessed as cell aggregates at 27.15 ug/ml after 48 hrs by propidium iodide staining-based flow cytometric method (reference value: 4.49%); assay type: functional
# [17] = tested on: MCF7; assay: Induction of apoptosis in human MCF7 cells assessed as cell debris at 27.15 ug/ml after 48 hrs by propidium iodide staining-based flow cytometric method (reference value: 2.75%); assay type: functional
# [18] = tested on: MCF7; assay: Induction of apoptosis in human MCF7 cells assessed as induction of caspase-3 activity by measuring caspase-3 levels at 27.15 ug/ml after 24 hrs ELISA (reference value: 0.0197 ng/ml); assay type: functional
# [19] = tested on: MCF7; assay: Cell cycle arrest in human MCF7 cells assessed as accumulation at G0/G1 phase at 50.05 ug/ml after 48 hrs by propidium iodide staining-based flow cytometric method (reference value: 71.13%); assay type: functional
# [20] = tested on: MCF7; assay: Cell cycle arrest in human MCF7 cells assessed as accumulation at S phase at 50.05 ug/ml after 48 hrs by propidium iodide staining-based flow cytometric method (reference value: 23.5%); assay type: functional
# [21] = tested on: MCF7; assay: Cell cycle arrest in human MCF7 cells assessed as accumulation at G2/M phase at 50.05 ug/ml after 48 hrs by propidium iodide staining-based flow cytometric method (reference value: 4.82%); assay type: functional
# [22] = tested on: MCF7; assay: Induction of apoptosis in human MCF7 cells at 50.05 ug/ml after 48 hrs by propidium iodide staining-based flow cytometric method (reference value: 0.55%); assay type: functional
# [23] = tested on: MCF7; assay: Induction of apoptosis in human MCF7 cells assessed as cell aggregates at 50.05 ug/ml after 48 hrs by propidium iodide staining-based flow cytometric method (reference value: 4.49%); assay type: functional
# [24] = tested on: MCF7; assay: Induction of apoptosis in human MCF7 cells assessed as cell debris at 50.05 ug/ml after 48 hrs by propidium iodide staining-based flow cytometric method (reference value: 2.75%); assay type: functional
# [25] = tested on: MCF7; assay: Induction of apoptosis in human MCF7 cells assessed as induction of caspase-3 activity by measuring caspase-3 levels at 50.05 ug/ml after 24 hrs ELISA (reference value: 0.0197 ng/ml); assay type: functional
Structure (SMILES),IC50 [1],IC50 [2],IC50 [3],IC50 [4],IC50 [5],other results
COc1ccc(/C=C/C(=O)C2=NN(c3ccccc3)C3c4cc(OC)c(OC)cc4CCN23)cc1 (stereo not drawn),190 µg/mL,68.5 µg/mL,243 µg/mL,218 µg/mL,115 µg/mL,–
COc1cc2c(cc1OC)C1N(CC2)C(C(=O)/C=C/c2cc(OC)c(OC)c(OC)c2)=NN1c1ccccc1 (stereo not drawn),156 µg/mL,27.1 µg/mL,–,107 µg/mL,–,Activity [6]: Active; Activity [7]: Active; Activity [8]: Active; Activity [9]: Active; Activity [10]: Active; Activity [11]: Active; Activity [12]: 66.11%; Activity [13]: 16.01%; Activity [14]: 0.6%; Activity [15]: 17.28%; Activity [16]: 7.92%; Activity [17]: 5.71%; Activity [18]: 0.4108 ng/mL
COc1cc2c(cc1OC)C1N(CC2)C(C(=O)/C=C/c2ccc(Cl)cc2)=NN1c1ccccc1 (stereo not drawn),156 µg/mL,151 µg/mL,622 µg/mL,141 µg/mL,57.2 µg/mL,–
O=c1[nH]cc(F)c(=O)[nH]1 [FLUOROURACIL],66 µg/mL,178 µg/mL,201 µg/mL,237 µg/mL,–,–
COc1cc2c(cc1OC)C1N(CC2)C(C(=O)/C=C/c2ccc([N+](=O)[O-])cc2)=NN1c1ccccc1 (stereo not drawn),207 µg/mL,50 µg/mL,114 µg/mL,478 µg/mL,245 µg/mL,Activity [6]: Active; Activity [7]: Active; Activity [8]: Active; Activity [9]: Active; Activity [10]: Active; Activity [11]: Active; Activity [19]: 74.52%; Activity [20]: 17.06%; Activity [21]: 0%; Activity [22]: 8.72%; Activity [23]: 4.85%; Activity [24]: 3.88%; Activity [25]: 0.3573 ng/mL
COc1cc2c(cc1OC)C1N(CC2)C(C(=O)/C=C/c2ccc3c(c2)OCO3)=NN1c1ccccc1 (stereo not drawn),201 µg/mL,225 µg/mL,187 µg/mL,122 µg/mL,51.9 µg/mL,–
COc1cc2c(cc1OC)C1N(CC2)C(C(=O)/C=C/c2ccccc2)=NN1c1ccccc1 (stereo not drawn),78.1 µg/mL,61.4 µg/mL,625 µg/mL,139 µg/mL,52.1 µg/mL,–
